In ChEMBL document CHEMBL3882725, “Indazole derivatives as JNK inhibitors and compositions and methods related thereto” (2002):

What follows are molecules tested against Mitogen-activated protein kinase 9 (Homo sapiens, UniProt P45984) (assay: Inhibition of His6-tagged JNK2 (unknown origin) assessed as reduction in c-Jun phosphorylation using GST-c-Jun (1 to 79 residues) and [gamma32P]ATP incubated for 1 hr by scintillation counting assay).
Chain of Mitogen-activated protein kinase 9 (P45984 whole entry, the tested form may be a part): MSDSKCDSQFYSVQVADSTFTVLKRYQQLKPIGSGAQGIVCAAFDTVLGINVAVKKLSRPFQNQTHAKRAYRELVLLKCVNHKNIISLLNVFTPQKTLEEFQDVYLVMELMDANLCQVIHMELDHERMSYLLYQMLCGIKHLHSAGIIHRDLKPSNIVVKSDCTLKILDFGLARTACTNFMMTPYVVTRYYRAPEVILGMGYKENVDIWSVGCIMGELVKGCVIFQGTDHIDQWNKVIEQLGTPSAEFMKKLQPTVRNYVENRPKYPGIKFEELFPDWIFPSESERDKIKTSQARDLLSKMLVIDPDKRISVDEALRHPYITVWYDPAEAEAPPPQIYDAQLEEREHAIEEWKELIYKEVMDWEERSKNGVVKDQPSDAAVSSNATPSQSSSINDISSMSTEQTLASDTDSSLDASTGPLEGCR

SMILES	IC50
c1cc2[nH]nc(-c3ccc4c(c3)OCCO4)c2cc1-c1n[nH]c(CN2CCCC2)n1	1 to 10 µM
COc1ccc2cc(-c3n[nH]c4ccc(-c5n[nH]c(CN(C)C)n5)cc34)ccc2c1	1 to 10 µM
COc1ccc2cc(-c3n[nH]c4ccc(-c5nc[nH]n5)cc34)ccc2c1	1 to 10 µM
c1ccc2ncc(-c3n[nH]c4ccc(-c5nc[nH]n5)cc34)cc2c1	1 to 10 µM
O=C(Nc1ccccc1)c1cccc(-c2n[nH]c3ccc(-c4n[nH]c(CN5CCCC5)n4)cc23)c1	0.5 to 10 µM
COc1ccc(C(=O)Nc2cccc(-c3n[nH]c4ccc(-c5nc[nH]n5)cc34)c2)cc1	0.5 to 10 µM
Cc1ccc(C(=O)Nc2cccc(-c3n[nH]c4ccc(-c5nc[nH]n5)cc34)c2)cc1	1 to 10 µM
O=C(Nc1cccc(-c2n[nH]c3ccc(-c4nc[nH]n4)cc23)c1)c1ccccc1	0.5 to 10 µM
O=C(Nc1cccc(-c2n[nH]c3ccc(-c4nc[nH]n4)cc23)c1)c1ccc(Cl)cc1Cl	1 to 10 µM
CN1CCN(CC(=O)Nc2cccc(-c3n[nH]c4ccc(-c5nc[nH]n5)cc34)c2)CC1	1 to 10 µM
Fc1ccc(-c2n[nH]c3ccc(-c4n[nH]c(CN5CCCC5)n4)cc23)cc1	0.5 to 10 µM
COc1ccc2cc(-c3n[nH]c4ccc(-c5n[nH]c(CN6CCCC6)n5)cc34)ccc2c1	0.5 to 10 µM
O=C(CN1CCOCC1)Nc1cccc(-c2n[nH]c3ccc(-c4nc[nH]n4)cc23)c1	0.5 to 10 µM
CC(C)CC(=O)Nc1cccc(-c2n[nH]c3ccc(-c4nc[nH]n4)cc23)c1	0.5 to 10 µM
CC(C)C(=O)Nc1cccc(-c2n[nH]c3ccc(-c4nc[nH]n4)cc23)c1	0.5 to 10 µM
NC(=O)c1ccc2[nH]nc(-c3ccc4c(c3)CCO4)c2c1	1 to 10 µM
c1nc(-c2ccc3[nH]nc(-c4ccc5c(c4)CCO5)c3c2)n[nH]1	1 to 10 µM
O=C(Nc1cccc(-c2n[nH]c3ccc(-c4nc[nH]n4)cc23)c1)c1ccc(Cl)cc1	1 to 10 µM
CC(O)Cc1nnc(-c2ccc3[nH]nc(-c4ccc(F)cc4)c3c2)[nH]1 (stereo in doubt; form 1)	0.5 to 10 µM
CC(O)Cc1nnc(-c2ccc3[nH]nc(-c4ccc(F)cc4)c3c2)[nH]1 (stereo in doubt; form 2)	1 to 10 µM
c1cc(OCCN2CCCCC2)cc(-c2n[nH]c3ccc(-c4nc[nH]n4)cc23)c1 [CC-401]	1 to 10 µM
